Biological target: T1, BRM (Homo sapiens, UniProt P51531)
T1 construct: In-Cell Western Screen of BRM Degradation in SW1573 Cells; endogenous in cells; host or cells: SW1573
Assay: In-cell Western screen of BRM degradation in SW1573 cells (Dmax and DC50)
Type: cell-based
Conditions: BRM degradation, SW1573 cells, Table 2D; for Dmax: read-out: **Dmax (%) (% degraded); for DC50: read-out: *DC50
How it was run: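 Adherent SW1573 cultures exposed to test compounds for 18-20 h were processed for in-cell Western after PFA fixation and detergent permeabilization. BRM degradation was reported as Dmax and DC50.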

T1 sequence (P51531 whole entry): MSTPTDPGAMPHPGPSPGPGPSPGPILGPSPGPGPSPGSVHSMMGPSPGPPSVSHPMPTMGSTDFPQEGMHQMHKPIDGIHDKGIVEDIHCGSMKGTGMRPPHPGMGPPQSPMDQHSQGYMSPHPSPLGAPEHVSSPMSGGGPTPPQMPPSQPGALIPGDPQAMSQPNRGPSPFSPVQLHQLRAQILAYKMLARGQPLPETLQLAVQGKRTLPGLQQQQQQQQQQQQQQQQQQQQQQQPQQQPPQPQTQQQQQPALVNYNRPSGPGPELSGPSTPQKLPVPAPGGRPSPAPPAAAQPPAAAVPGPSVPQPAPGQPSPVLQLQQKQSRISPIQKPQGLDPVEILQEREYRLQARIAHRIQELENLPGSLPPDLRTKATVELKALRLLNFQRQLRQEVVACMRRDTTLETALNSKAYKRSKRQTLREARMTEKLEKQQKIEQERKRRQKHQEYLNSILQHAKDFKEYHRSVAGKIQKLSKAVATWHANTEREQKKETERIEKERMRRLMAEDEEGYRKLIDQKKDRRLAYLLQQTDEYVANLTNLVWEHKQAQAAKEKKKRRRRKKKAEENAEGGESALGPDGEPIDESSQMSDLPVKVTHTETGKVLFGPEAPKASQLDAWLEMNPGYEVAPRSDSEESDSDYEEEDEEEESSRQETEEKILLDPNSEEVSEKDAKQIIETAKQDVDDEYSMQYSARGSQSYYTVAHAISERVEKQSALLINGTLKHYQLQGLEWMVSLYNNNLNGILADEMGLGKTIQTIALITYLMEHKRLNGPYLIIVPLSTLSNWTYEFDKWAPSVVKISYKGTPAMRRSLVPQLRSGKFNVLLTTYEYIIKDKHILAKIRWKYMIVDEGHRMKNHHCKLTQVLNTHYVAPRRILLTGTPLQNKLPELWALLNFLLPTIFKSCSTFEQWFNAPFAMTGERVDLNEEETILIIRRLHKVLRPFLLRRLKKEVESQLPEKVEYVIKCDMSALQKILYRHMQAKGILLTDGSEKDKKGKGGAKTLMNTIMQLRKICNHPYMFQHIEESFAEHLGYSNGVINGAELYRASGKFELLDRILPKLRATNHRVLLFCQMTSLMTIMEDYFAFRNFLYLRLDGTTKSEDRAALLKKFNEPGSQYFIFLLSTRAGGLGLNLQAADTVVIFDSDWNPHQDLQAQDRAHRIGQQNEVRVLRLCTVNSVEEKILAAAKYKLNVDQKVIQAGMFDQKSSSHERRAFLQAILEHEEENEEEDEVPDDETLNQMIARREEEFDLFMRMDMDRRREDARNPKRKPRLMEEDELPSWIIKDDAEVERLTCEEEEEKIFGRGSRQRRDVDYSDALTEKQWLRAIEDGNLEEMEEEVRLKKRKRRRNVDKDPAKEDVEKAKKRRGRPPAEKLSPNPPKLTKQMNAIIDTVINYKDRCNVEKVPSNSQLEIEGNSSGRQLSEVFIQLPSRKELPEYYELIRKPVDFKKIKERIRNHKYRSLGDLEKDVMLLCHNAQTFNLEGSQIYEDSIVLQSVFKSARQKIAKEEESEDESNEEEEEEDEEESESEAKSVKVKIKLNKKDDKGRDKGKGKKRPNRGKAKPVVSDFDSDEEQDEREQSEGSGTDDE

Structure (SMILES): Cc1nccn1-c1ccc([C@H](C)NC(=O)[C@@H]2C[C@@H](O)CN2C(=O)[C@H](c2cc(N3CCN(C[C@H]4C[C@H](Oc5cc(N6C7CCC6CN(c6cc(-c8ccccc8O)nnc6N)C7)ccn5)C4)CC3)no2)C(C)C)cc1 [compound 575, (2S,4R)-1-((2S)-2-(3-(4-(((1r,3S)-3-((4-(3-(3-amino-6-(2-hydroxyphenyl)pyridazin-4-yl)-3,8-diazabicyclo[3.2.1]octan-8-yl)pyridin-2-yl)oxy)cyclobutyl)methyl)piperazin-1-yl)isoxazol-5-yl)-3-methylbutanoyl)-4-hydroxy-N-((S)-1-(4-(2-methyl-1H-imidazol-1-yl)phenyl)ethyl)pyrrolidine-2-carboxamide]
- Dmax: 50 to 75%
- DC50: 10 to 30 nM

Structure (SMILES): Cc1nccn1-c1ccc([C@H](C)NC(=O)[C@@H]2C[C@@H](O)CN2C(=O)[C@@H](c2cc(N3CCN(C[C@H]4C[C@H](Oc5cc(N6C7CCC6CN(c6cc(-c8ccccc8O)nnc6N)C7)ccn5)C4)CC3)no2)C(C)C)cc1 [compound 576, (2S,4R)-1-((2R)-2-(3-(4-(((1r,3R)-3-((4-(3-(3-amino-6-(2-hydroxyphenyl)pyridazin-4-yl)-3,8-diazabicyclo[3.2.1]octan-8-yl)pyridin-2-yl)oxy)cyclobutyl)methyl)piperazin-1-yl)isoxazol-5-yl)-3-methylbutanoyl)-4-hydroxy-N-((S)-1-(4-(2-methyl-1H-imidazol-1-yl)phenyl)ethyl)pyrrolidine-2-carboxamide]
- Dmax: > 75%
- DC50: < 2.5 nM

Structure (SMILES): Cc1ncsc1-c1ccc([C@H](C)NC(=O)[C@@H]2C[C@@H](O)CN2C(=O)[C@H](c2cc(OCCC3CCN(C[C@H]4C[C@H](Oc5cc(N6C7CCC6CN(c6cc(-c8ccccc8O)nnc6N)C7)ccn5)C4)CC3)no2)C(C)C)c(F)c1F [compound 587, (2S,4R)-1-((2S)-2-(3-(2-(1-(((1r,3S)-3-((4-(3-(3-amino-6-(2-hydroxyphenyl)pyridazin-4-yl)-3,8-diazabicyclo[3.2.1]octan-8-yl)pyridin-2-yl)oxy)cyclobutyl)methyl)piperidin-4-yl)ethoxy)isoxazol-5-yl)-3-methylbutanoyl)-N-((S)-1-(2,3-difluoro-4-(4-methylthiazol-5-yl)phenyl)ethyl)-4-hydroxypyrrolidine-2-carboxamide]
- DC50: > 30 nM

Structure (SMILES): Cc1ncsc1-c1ccc([C@H](C)NC(=O)[C@@H]2C[C@@H](O)CN2C(=O)[C@@H](c2cc(OCCC3CCN(C[C@H]4C[C@H](Oc5cc(N6C7CCC6CN(c6cc(-c8ccccc8O)nnc6N)C7)ccn5)C4)CC3)no2)C(C)C)c(F)c1F [compound 588, (2S,4R)-1-((2R)-2-(3-(2-(1-(((1r,3R)-3-((4-(3-(3-amino-6-(2-hydroxyphenyl)pyridazin-4-yl)-3,8-diazabicyclo[3.2.1]octan-8-yl)pyridin-2-yl)oxy)cyclobutyl)methyl)piperidin-4-yl)ethoxy)isoxazol-5-yl)-3-methylbutanoyl)-N-((S)-1-(2,3-difluoro-4-(4-methylthiazol-5-yl)phenyl)ethyl)-4-hydroxypyrrolidine-2-carboxamide]
- Dmax: > 75%
- DC50: < 2.5 nM

Structure (SMILES): Cc1ncsc1-c1cnc([C@H](C)NC(=O)[C@@H]2C[C@@H](O)CN2C(=O)[C@H](c2cc(N3CCC(CN4CCC(O[C@H]5C[C@H](Oc6cc(N7C8CCC7CN(c7cc(-c9ccccc9O)nnc7N)C8)ccn6)C5)CC4)CC3)no2)C(C)C)cn1 [compound 589, (2S,4R)-1-((2S)-2-(3-(4-((4-((1r,3r)-3-((4-(3-(3-amino-6-(2-hydroxyphenyl)pyridazin-4-yl)-3,8-diazabicyclo[3.2.1]octan-8-yl)pyridin-2-yl)oxy)cyclobutoxy)piperidin-1-yl)methyl)piperidin-1-yl)isoxazol-5-yl)-3-methylbutanoyl)-4-hydroxy-N-((S)-1-(5-(4-methylthiazol-5-yl)pyrazin-2-yl)ethyl)pyrrolidine-2-carboxamide]
- DC50: > 30 nM

Structure (SMILES): Cc1ncsc1-c1cnc([C@H](C)NC(=O)[C@@H]2C[C@@H](O)CN2C(=O)[C@@H](c2cc(N3CCC(CN4CCC(O[C@H]5C[C@H](Oc6cc(N7C8CCC7CN(c7cc(-c9ccccc9O)nnc7N)C8)ccn6)C5)CC4)CC3)no2)C(C)C)cn1 [compound 590, (2S,4R)-1-((2R)-2-(3-(4-((4-((1r,3r)-3-((4-(3-(3-amino-6-(2-hydroxyphenyl)pyridazin-4-yl)-3,8-diazabicyclo[3.2.1]octan-8-yl)pyridin-2-yl)oxy)cyclobutoxy)piperidin-1-yl)methyl)piperidin-1-yl)isoxazol-5-yl)-3-methylbutanoyl)-4-hydroxy-N-((S)-1-(5-(4-methylthiazol-5-yl)pyrazin-2-yl)ethyl)pyrrolidine-2-carboxamide]
- Dmax: > 75%
- DC50: < 2.5 nM

Structure (SMILES): Cc1ncsc1-c1ccc([C@H](C)NC(=O)[C@@H]2C[C@@H](O)CN2C(=O)[C@@H](c2cc(N3CCN(CCN4CCC(C(C)n5cc(-c6cc(-c7ccccc7O)nnc6N)cn5)CC4)CC3)no2)C(C)C)cc1 (stereo partly drawn) [compound 591, (2S,4R)-1-((2R)-2-(3-(4-(2-(4-(1-(4-(3-amino-6-(2-hydroxyphenyl)pyridazin-4-yl)-1H-pyrazol-1-yl)ethyl)piperidin-1-yl)ethyl)piperazin-1-yl)isoxazol-5-yl)-3-methylbutanoyl)-4-hydroxy-N-((S)-1-(4-(4-methylthiazol-5-yl)phenyl)ethyl)pyrrolidine-2-carboxamide]
- Dmax: > 75%
- DC50: < 2.5 nM

Structure (SMILES): Cc1ncsc1-c1ccc([C@H](C)NC(=O)[C@@H]2C[C@@H](O)CN2C(=O)[C@@H](c2cc(N3CCN(CCOc4cc(N5C6CCC5CN(c5cc(-c7ccccc7O)nnc5N)C6)ccn4)CC3)no2)C(C)C)cc1 [compound 592, (2S,4R)-1-((2R)-2-(3-(4-(2-((4-(3-(3-amino-6-(2-hydroxyphenyl)pyridazin-4-yl)-3,8-diazabicyclo[3.2.1]octan-8-yl)pyridin-2-yl)oxy)ethyl)piperazin-1-yl)isoxazol-5-yl)-3-methylbutanoyl)-4-hydroxy-N-((S)-1-(4-(4-methylthiazol-5-yl)phenyl)ethyl) pyrrolidine-2-carboxamide]
- Dmax: > 75%
- DC50: < 2.5 nM

Structure (SMILES): Cc1ncsc1-c1ccc([C@H](C)NC(=O)[C@@H]2C[C@@H](O)CN2C(=O)[C@H](c2cc(OCCC3CCN(C[C@H]4C[C@H](N5CCC(CN6CCOC7(CCN(c8cc(-c9ccccc9O)nnc8N)CC7)C6)CC5)C4)CC3)no2)C(C)C)cc1 [compound 597, (2S,4R)-1-((S)-2-(3-(2-(1-(((1r,3S)-3-(4-((9-(3-amino-6-(2-hydroxyphenyl)pyridazin-4-yl)-1-oxa-4,9-diazaspiro[5.5]undecan-4-yl)methyl)piperidin-1-yl)cyclobutyl)methyl)piperidin-4-yl)ethoxy)isoxazol-5-yl)-3-methylbutanoyl)-4-hydroxy-N-((S)-1-(4-(4-methylthiazol-5-yl)phenyl)ethyl)pyrrolidine-2-carboxamide]
- Dmax: > 75%
- DC50: 10 to 30 nM

Structure (SMILES): Cc1ncsc1-c1ccc([C@H](C)NC(=O)[C@@H]2C[C@@H](O)CN2C(=O)[C@@H](c2cc(OCCC3CCN(C[C@H]4C[C@H](N5CCC(CN6CCOC7(CCN(c8cc(-c9ccccc9O)nnc8N)CC7)C6)CC5)C4)CC3)no2)C(C)C)cc1 [compound 598, (2S,4R)-1-((R)-2-(3-(2-(1-(((1r,3R)-3-(4-((9-(3-amino-6-(2-hydroxyphenyl)pyridazin-4-yl)-1-oxa-4,9-diazaspiro[5.5]undecan-4-yl)methyl)piperidin-1-yl)cyclobutyl)methyl)piperidin-4-yl)ethoxy)isoxazol-5-yl)-3-methylbutanoyl)-4-hydroxy-N-((S)-1-(4-(4-methylthiazol-5-yl)phenyl)ethyl)pyrrolidine-2-carboxamide]
- Dmax: > 75%
- DC50: < 2.5 nM

Structure (SMILES): Cc1ncsc1-c1ccc([C@H](C)NC(=O)[C@@H]2C[C@@H](O)CN2C(=O)[C@@H](c2cc(OCCC3CCN(C[C@H]4C[C@H](N5CCC(C(C)n6cc(-c7cc(-c8ccccc8O)nnc7N)cn6)CC5)C4)CC3)no2)C(C)C)cc1 (stereo partly drawn) [compound 599, (2S,4R)-1-((2R)-2-(3-(2-(1-(((1r,3R)-3-(4-(1-(4-(3-amino-6-(2-hydroxyphenyl)pyridazin-4-yl)-1H-pyrazol-1-yl)ethyl)piperidin-1-yl)cyclobutyl)methyl)piperidin-4-yl)ethoxy)isoxazol-5-yl)-3-methylbutanoyl)-4-hydroxy-N-((S)-1-(4-(4-methylthiazol-5-yl)phenyl)ethyl)pyrrolidine-2-carboxamide]
- Dmax: > 75%
- DC50: < 2.5 nM

Structure (SMILES): Cc1nccn1-c1ccc([C@H](C)NC(=O)[C@@H]2C[C@@H](O)CN2C(=O)[C@H](c2cc(N3CCC(O[C@H]4C[C@H](Oc5cc(N6C7CCC6CN(c6cc(-c8ccccc8O)nnc6N)C7)ccn5)C4)CC3)no2)C(C)C)cc1 [compound 600, (2S,4R)-1-((2S)-2-(3-(4-((1r,3S)-3-((4-(3-(3-amino-6-(2-hydroxyphenyl)pyridazin-4-yl)-3,8-diazabicyclo[3.2.1]octan-8-yl)pyridin-2-yl)oxy)cyclobutoxy)piperidin-1-yl)isoxazol-5-yl)-3-methylbutanoyl)-4-hydroxy-N-((S)-1-(4-(2-methyl-1H-imidazol-1-yl)phenyl)ethyl)pyrrolidine-2-carboxamide]
- DC50: > 30 nM

Structure (SMILES): Cc1nccn1-c1ccc([C@H](C)NC(=O)[C@@H]2C[C@@H](O)CN2C(=O)[C@@H](c2cc(N3CCC(O[C@H]4C[C@H](Oc5cc(N6C7CCC6CN(c6cc(-c8ccccc8O)nnc6N)C7)ccn5)C4)CC3)no2)C(C)C)cc1 [compound 601, (2S,4R)-1-((2R)-2-(3-(4-((1r,3R)-3-((4-(3-(3-amino-6-(2-hydroxyphenyl)pyridazin-4-yl)-3,8-diazabicyclo[3.2.1]octan-8-yl)pyridin-2-yl)oxy)cyclobutoxy)piperidin-1-yl)isoxazol-5-yl)-3-methylbutanoyl)-4-hydroxy-N-((S)-1-(4-(2-methyl-1H-imidazol-1-yl)phenyl)ethyl)pyrrolidine-2-carboxamide]
- Dmax: > 75%
- DC50: < 2.5 nM
